Holding throughout (type): biochemical
One assay concerns the target T1, ATX (autotaxin) (Homo sapiens, UniProt Q13822).
T1 construct: purchased Cayman 10803
Description: Autotaxin Inhibition Screening Assay (choline release from LPC, LPC-CR). Conditions: for inhibition at 4 µM: 4 μM compound; for inhibition at 20 µM: 20 μM compound; for inhibition at 50 µM: 50 μM compound. The method, then:
ATX (autotaxin) activity was measured by choline release from LPC in presence or absence of test compounds (Compounds 1˜83; at concentrations of 4 μM, 20 μM and 50 μM). Twenty (20) ng ATX (10803, Cayman, MI, USA) was incubated with 100 μM 14:0 LPC (855575P, Avanti, AL, USA) in a final volume of 100 μL buffer containing 50 mM Tris pH 8.0, 0.01% Triton X-100, 50 mM CaCl2, 1 unit/ml choline oxidase, 2 unit/ml horseradish peroxidase (HRP), 2 mM homovanilic acid (HVA). The relative amount of released choline was measured by HVA fluorescence in a 96-well plate. Fluorescent intensity was determined at λex/λem=320/450 nm every 60 sec for 90 min with a SpectraMax i3 (Molecular Devices, CA, USA). Data analysis was performed using GraphPad Prism (GraphPad, La Jolla CA, USA). Inhibition %=[1−(SlopeTA−SlopeBlank)/(SlopeVehicle−SlopeBlank)]×100% HDAC Inhibition Screening Assay

A further assay has as its target T2, HDAC1 (Homo sapiens, UniProt Q13547).
T2 construct: purchased Enzo Life Sciences
Nature of the assay: HDAC Inhibition Screening Assay (FLUOR DE LYS Fluorimetric Drug Discovery Kit), HDAC1. Conditions: for inhibition at 2 µM: 2 μM compound; for inhibition at 10 µM: 10 μM compound; for inhibition at 50 µM: 50 μM compound. The method, then: (§1) The HDAC1/HDAC2/HDAC3 in vitro activities are detected by Enzo Life Sciences' HDAC1/HDAC2/HDAC3 Fluorimetric Drug Discovery Kit. The assay is based on the FLUOR DE LYS® Substrate and FLUOR DE LYS® Developer combination. The assay procedure has two steps. First, the FLUOR DE LYS® Substrate, which comprises an acetylated lysine side chain, is incubated with HDAC1/HDAC2/HDAC3, respectively. Deacetylation of the substrate sensitizes the substrate so that, in the second step, treatment with the FLUOR DE LYS® Developer produces a fluorophore. The signals of the test compounds (Compounds 1˜83; at concentrations of 2 μM, 10 μM and 50 μM) in 96-well plates are detected at 360 nm or 485 nm excitation and 460 nm or 530 nm emission with a Molecular Devices SpectraMax i3 Imaging Cytometer. The HDAC1/HDAC2/HDAC3 activities are expressed in percentage of basal control minus baseline control.

Another assay concerns the target T3, HDAC3 (Homo sapiens, UniProt O15379).
T3 construct: purchased Enzo Life Sciences
Description: HDAC Inhibition Screening Assay (FLUOR DE LYS Fluorimetric Drug Discovery Kit), HDAC3. Conditions: for inhibition at 2 µM: 2 μM compound; for inhibition at 10 µM: 10 μM compound; for inhibition at 50 µM: 50 μM compound. The method, then: as §1

Another assay has as its target T4, HDAC2 (Homo sapiens, UniProt Q92769).
T4 construct: purchased Enzo Life Sciences
Nature of the assay: HDAC Inhibition Screening Assay (FLUOR DE LYS Fluorimetric Drug Discovery Kit), HDAC2. Conditions: for inhibition at 2 µM: 2 μM compound; for inhibition at 10 µM: 10 μM compound; for inhibition at 50 µM: 50 μM compound. As for the experimental part:
as §1

Where only a bound is given, the exact number is not on record here.

T2 sequence (Q13547 whole entry): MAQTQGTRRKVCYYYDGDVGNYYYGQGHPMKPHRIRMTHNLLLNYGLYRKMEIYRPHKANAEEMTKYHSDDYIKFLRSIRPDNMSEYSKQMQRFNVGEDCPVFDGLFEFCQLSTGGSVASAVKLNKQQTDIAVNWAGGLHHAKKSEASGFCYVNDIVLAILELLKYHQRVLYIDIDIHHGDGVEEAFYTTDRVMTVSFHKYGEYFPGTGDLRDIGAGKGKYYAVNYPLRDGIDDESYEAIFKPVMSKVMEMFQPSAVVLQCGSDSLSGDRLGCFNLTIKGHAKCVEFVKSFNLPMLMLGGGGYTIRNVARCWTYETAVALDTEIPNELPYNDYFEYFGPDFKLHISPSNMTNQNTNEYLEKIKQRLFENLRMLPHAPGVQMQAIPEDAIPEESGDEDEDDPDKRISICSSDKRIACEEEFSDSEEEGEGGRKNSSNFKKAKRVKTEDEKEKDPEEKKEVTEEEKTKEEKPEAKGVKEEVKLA
T4 sequence (Q92769 whole entry): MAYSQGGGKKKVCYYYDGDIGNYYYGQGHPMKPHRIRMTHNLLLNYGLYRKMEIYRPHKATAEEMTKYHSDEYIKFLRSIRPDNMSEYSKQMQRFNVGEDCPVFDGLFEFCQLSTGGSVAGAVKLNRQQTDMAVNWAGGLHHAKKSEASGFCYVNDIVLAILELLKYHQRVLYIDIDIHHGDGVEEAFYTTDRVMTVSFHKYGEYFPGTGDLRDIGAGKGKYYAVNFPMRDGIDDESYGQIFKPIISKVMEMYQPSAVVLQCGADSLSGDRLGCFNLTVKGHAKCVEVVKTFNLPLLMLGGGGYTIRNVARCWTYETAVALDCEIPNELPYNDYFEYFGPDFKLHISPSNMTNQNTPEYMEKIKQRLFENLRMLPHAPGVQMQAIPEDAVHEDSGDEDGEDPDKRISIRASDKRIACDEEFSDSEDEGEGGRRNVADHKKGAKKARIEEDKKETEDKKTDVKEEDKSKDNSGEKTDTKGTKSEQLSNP
T3 sequence (O15379 whole entry): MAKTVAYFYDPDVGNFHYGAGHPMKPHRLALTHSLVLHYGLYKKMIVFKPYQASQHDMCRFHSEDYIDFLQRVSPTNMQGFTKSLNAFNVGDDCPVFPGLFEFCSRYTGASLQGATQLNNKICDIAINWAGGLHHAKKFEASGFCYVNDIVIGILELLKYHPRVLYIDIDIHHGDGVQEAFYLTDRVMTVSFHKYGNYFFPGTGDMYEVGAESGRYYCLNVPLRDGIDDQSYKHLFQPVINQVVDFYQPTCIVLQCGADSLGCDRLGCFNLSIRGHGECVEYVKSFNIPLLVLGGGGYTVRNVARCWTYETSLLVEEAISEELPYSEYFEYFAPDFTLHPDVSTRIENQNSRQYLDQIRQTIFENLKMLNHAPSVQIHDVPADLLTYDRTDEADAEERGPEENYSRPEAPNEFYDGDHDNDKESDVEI
T3 sequence (O75376 395-489 partner limits assumed): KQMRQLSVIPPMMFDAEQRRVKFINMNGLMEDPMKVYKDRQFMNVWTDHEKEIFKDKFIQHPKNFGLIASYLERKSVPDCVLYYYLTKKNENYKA

Take `O=C(/C=C/c1ccc2c(c1)CCC2NCCc1ccc(F)cc1)NO` (stereo not drawn) [Compound 53]: on ATX (autotaxin), the inhibition at 4 µM was < 50%, the inhibition at 20 µM is < 50% and the inhibition at 50 µM was < 50%. Further, on HDAC1, the inhibition at 2 µM was > 80%, the inhibition at 10 µM was > 80% and the inhibition at 50 µM was > 80%. On HDAC3, the inhibition at 2 µM was > 80%, the inhibition at 10 µM is > 80% and the inhibition at 50 µM is > 80%. At HDAC2, the inhibition at 2 µM is > 80%, the inhibition at 10 µM was > 80% and the inhibition at 50 µM is > 80%.
Turning to `O=C(/C=C/c1ccc2c(c1)CC/C(=C\c1cc(C(F)(F)F)cc(C(F)(F)F)c1)C2=O)NO` [Compound 7, (E)-3-(6-((E)-3,5-bis(trifluoromethyl)benzylidene)-5-oxo-5,6,7,8-tetrahydronaphthalen-2-yl)-N-hydroxyacrylamide], at ATX (autotaxin), the inhibition at 4 µM was < 50%, the inhibition at 20 µM was in the range of 50 to 80% and the inhibition at 50 µM was 50 to 80%. At HDAC1, the inhibition at 2 µM was < 50%, the inhibition at 10 µM is < 50% and the inhibition at 50 µM lay in the range of 50 to 80%. For the same molecule, at HDAC3, the inhibition at 2 µM was < 50%, the inhibition at 10 µM is < 50% and the inhibition at 50 µM was in the range of 50 to 80%. On HDAC2, the inhibition at 2 µM is < 50%, the inhibition at 10 µM was < 50% and the inhibition at 50 µM fell in the range of 50 to 80%.
`O=C(CCCCC(=O)Nc1ccc2c(c1)CC/C(=C\c1cc(C(F)(F)F)cc(C(F)(F)F)c1)C2=O)NO` [Compound 14, (E)-N1-(6-(3,5-bis(trifluoromethyl)benzylidene)-5-oxo-5,6,7,8-tetrahydronaphthalen-2-yl)-N6-hydroxyadipamide]: at ATX (autotaxin), the inhibition at 4 µM was > 80%, the inhibition at 20 µM is > 80% and the inhibition at 50 µM is > 80%. In addition, at HDAC1, the inhibition at 2 µM is < 50%, the inhibition at 10 µM was in the range of 50 to 80% and the inhibition at 50 µM is > 80%. For the same molecule, at HDAC3, the inhibition at 2 µM was < 50%, the inhibition at 10 µM is < 50% and the inhibition at 50 µM is > 80%. In addition, on HDAC2, the inhibition at 2 µM is < 50%, the inhibition at 10 µM fell in the range of 50 to 80% and the inhibition at 50 µM is > 80%.
For the molecule `CCN(CC)c1ccc(C(=O)NC2CCc3cc(/C=C/C(=O)NO)ccc32)cc1` (stereo not drawn) [Compound 28, (E)-4-(diethylamino)-N-(5-(3-(hydroxyamino)-3-oxoprop-1-en-1-yl)-2,3-dihydro-1H-inden-1-yl)benzamide], on ATX (autotaxin), the inhibition at 4 µM was < 50%, the inhibition at 20 µM is < 50% and the inhibition at 50 µM was < 50%. Further, on HDAC1, the inhibition at 2 µM was > 80%, the inhibition at 10 µM was > 80% and the inhibition at 50 µM was > 80%. For the same molecule, at HDAC3, the inhibition at 2 µM is > 80%, the inhibition at 10 µM is > 80% and the inhibition at 50 µM was > 80%. Besides, on HDAC2, the inhibition at 2 µM was > 80%, the inhibition at 10 µM was > 80% and the inhibition at 50 µM was > 80%.
In the case of `CN(C)c1ccc(C(=O)NC2CCc3cc(/C=C/C(=O)NO)ccc32)cc1` (stereo not drawn) [Compound 26, (E)-4-(dimethylamino)-N-(5-(3-(hydroxyamino)-3-oxoprop-1-en-1-yl)-2,3-dihydro-1H-inden-1-yl)benzamide], at ATX (autotaxin), the inhibition at 4 µM was < 50%, the inhibition at 20 µM was < 50% and the inhibition at 50 µM was < 50%. Also, at HDAC1, the inhibition at 2 µM was > 80%, the inhibition at 10 µM was > 80% and the inhibition at 50 µM is > 80%. Besides, on HDAC3, the inhibition at 2 µM was > 80%, the inhibition at 10 µM was > 80% and the inhibition at 50 µM is > 80%. Besides, at HDAC2, the inhibition at 2 µM was > 80%, the inhibition at 10 µM is > 80% and the inhibition at 50 µM is > 80%.
For `Nc1cc(F)ccc1NC(=O)CCCCC(=O)N1CCN(C(=O)c2ccc3c(c2)CC/C(=C\c2cc(C(F)(F)F)cc(C(F)(F)F)c2)C3=O)CC1` [Compound 82, (E)-N-(2-amino-4-fluorophenyl)-6-(4-(6-(3,5-bis(trifluoromethyl)benzylidene)-5-oxo-5,6,7,8-tetrahydronaphthalene-2-carbonyl)piperazin-1-yl)-6-oxohexanamide], at ATX (autotaxin), the inhibition at 4 µM was > 80%, the inhibition at 20 µM is > 80% and the inhibition at 50 µM is > 80%. Also, on HDAC1, the inhibition at 2 µM is < 50%, the inhibition at 10 µM was < 50% and the inhibition at 50 µM is < 50%. Besides, at HDAC3, the inhibition at 2 µM was < 50%, the inhibition at 10 µM is < 50% and the inhibition at 50 µM is 50 to 80%. Besides, on HDAC2, the inhibition at 2 µM was < 50%, the inhibition at 10 µM is < 50% and the inhibition at 50 µM is < 50%.
Regarding `O=C(CCCCCC(=O)Nc1ccc2c(c1)CC/C(=C\c1cc(C(F)(F)F)cc(C(F)(F)F)c1)C2=O)NO` [Compound 12, (E)-N1-(6-(3,5-bis(trifluoromethyl)benzylidene)-5-oxo-5,6,7,8-tetrahydronaphthalen-2-yl)-N7-hydroxyheptanediamide], on ATX (autotaxin), the inhibition at 4 µM was > 80%, the inhibition at 20 µM was > 80% and the inhibition at 50 µM is > 80%. In addition, on HDAC1, the inhibition at 2 µM is < 50%, the inhibition at 10 µM fell in the range of 50 to 80% and the inhibition at 50 µM is > 80%. Besides, on HDAC3, the inhibition at 2 µM was 50 to 80%, the inhibition at 10 µM was > 80% and the inhibition at 50 µM is > 80%. Moreover, on HDAC2, the inhibition at 2 µM is 50 to 80%, the inhibition at 10 µM is > 80% and the inhibition at 50 µM is > 80%.
On ATX (autotaxin), `O=C(/C=C/c1ccc(COc2ccc3c(c2)CC/C(=C\c2cc(C(F)(F)F)cc(C(F)(F)F)c2)C3=O)cc1)NO` [Compound 72, (E)-3-(4-(((6-((E)-3,5-bis(trifluoromethyl)benzylidene)-5-oxo-5,6,7,8-tetrahydronaphthalen-2-yl)oxy)methyl)phenyl)-N-hydroxyacrylamide] displayed an inhibition at 4 µM of 50 to 80%, an inhibition at 20 µM of 50 to 80% and an inhibition at 50 µM of 50 to 80%. At HDAC1, the inhibition at 2 µM is < 50%, the inhibition at 10 µM is < 50% and the inhibition at 50 µM was in the range of 50 to 80%. In addition, at HDAC3, the inhibition at 2 µM was < 50%, the inhibition at 10 µM is < 50% and the inhibition at 50 µM lay in the range of 50 to 80%. Moreover, at HDAC2, the inhibition at 2 µM was < 50%, the inhibition at 10 µM is < 50% and the inhibition at 50 µM lay within 50 to 80%.
Take `O=C(/C=C/c1ccc2c(c1)CC/C(=C\c1cc(C(F)(F)F)cc(C(F)(F)F)c1)C2=O)NCCCCCC(=O)NO` [Compound 8, 6-((E)-3-(6-((E)-3,5-bis(trifluoromethyl)benzylidene)-5-oxo-5,6,7,8-tetrahydronaphthalen-2-yl)acrylamido)-N-hydroxyhexanamide]: at ATX (autotaxin), the inhibition at 4 µM was > 80%, the inhibition at 20 µM is > 80% and the inhibition at 50 µM was > 80%. For the same molecule, on HDAC1, the inhibition at 2 µM is 50 to 80%, the inhibition at 10 µM is > 80% and the inhibition at 50 µM is > 80%. In addition, on HDAC3, the inhibition at 2 µM is < 50%, the inhibition at 10 µM is > 80% and the inhibition at 50 µM is > 80%. In addition, on HDAC2, the inhibition at 2 µM was > 80%, the inhibition at 10 µM was > 80% and the inhibition at 50 µM is > 80%.
Turning to `COc1ccc(C(=O)NC2CCc3cc(/C=C/C(=O)NO)ccc32)cc1` (stereo not drawn) [Compound 25, (E)-N-(5-(3-(hydroxyamino)-3-oxoprop-1-en-1-yl)-2,3-dihydro-1H-inden-1-yl)-4-methoxybenz amide], at ATX (autotaxin), the inhibition at 4 µM is < 50%, the inhibition at 20 µM was < 50% and the inhibition at 50 µM was < 50%. Also, on HDAC1, the inhibition at 2 µM was > 80%, the inhibition at 10 µM is > 80% and the inhibition at 50 µM is > 80%. On HDAC3, the inhibition at 2 µM was > 80%, the inhibition at 10 µM was > 80% and the inhibition at 50 µM is > 80%. Also, at HDAC2, the inhibition at 2 µM was > 80%, the inhibition at 10 µM was > 80% and the inhibition at 50 µM is > 80%.

A word on the inhibition: it is the percentage by which the read-out fell short of the control.

The values above are taken from patent US12162820B2 (TAIWANJ PHARMACEUTICALS CO., LTD., priority 2019, dated 2024).
